Data set [1] concerns the target T1, LbOYE (Leishmania braziliensis, UniProt A4H6Z3). Kind of data set: LbOYE enzyme kinetics (NADPH decay at 340 nm). The data set is classed as biochemical. Conditions: 20 µmol L^−1 compound, 1 µmol L^−1 LbOYE, 100 µmol L^−1 NADPH; substrates NEM and O2. The procedure:
The initial rates were obtained through the decay of the band at 340 nm referring to the maximum absorption of the NADPH (Nicotinamide Adenine Dinucleotide Phosphate) reducer, as previously reported. Solutions containing 1 µmol L^−1 of LbOYE, DMSO or 20 µmol L^−1 of the tested compounds from a stock solution at a concentration of 5 mmol L^−1 in DMSO were prepared in the presence and absence of the substrate N-Ethylmaleimide (NEM). These solutions were left for 30 min at room temperature. After 30 min, the NADPH reducer was added at a final concentration of 100 µmol L^−1.
Figure 7 Initial velocity (V0) for the reaction between 1 µmol L^−1 of LbOYE and 100 µmol L^−1 of NADPH in the presence of DMSO (control) or 20 µmol L^−1 of the compounds tested. Using (A) 100 µmol L^−1 of NEM in the presence of O2 and (B) absence of NEM in the presence of O2. Experiments carried out in phosphate buffer 25 mmol L^−1 pH 7.0, NaCl 100 mmol L^−1.

The target of data set [2] is T1, LbOYE. Put plainly: Suppression of intrinsic tryptophan fluorescence of LbOYE. The data set is classed as binding. Conditions: 25 °C. From the text:
The recombinant LbOYE protein was produced using the methodology previously described. Briefly, the protein was expressed in strains of bacterial Escherichia coli BL21(DE3) through induction by IPTG using the pET28a:LbOYE vector. The enzyme was purified through a chromatography step of capture by nickel affinity, as the pET28a vector allows the expression of a polyhistidine fusion peptide, located at the N-terminal end of the protein. After affinity purification, the polyhistidine tail was excised by “overnight” incubation with thrombin, and the second purification step was performed using size exclusion chromatography. Purification was evaluated by SDS-PAGE and protein concentration was estimated by spectrophotometry.
The emission spectra of the intrinsic fluorescence of the tryptophan were recorded using a Shimadzu F-4500 spectrofluorometer in the range of 310–420 nm, with opening of slits of excitation and emission at 5.0 nm and λex = 295 nm. Interaction analyzes between LbOYE and ligands were performed at λmax = 333 nm.
(§1) The compounds were solubilized in DMSO and then we made successive dilutions in a Tris-HCl 25 mmol L^−1 buffer, pH 8.0, containing 100 mmol L^−1 of NaCl. For all experiments, the final concentration of DMSO was kept constant and equal to 2.5%. Solutions with increasing concentrations of ligand and constant concentration of LbOYE (1 µmol L^−1) were prepared, which were kept at 25 °C for a period of 1h before acquisition of fluorescence emission spectra.
The results were obtained from the fluorescence emission spectra of the intrinsic tryptophan probe in the presence of the compounds HL1^Ch, HL3^FPh, HL5^NO2Ph, [Au(HL1^Ch)2]Cl and [Ag(HL3^FPh)2]NO3. The bonding parameters were determined by the Hill plot, obtaining the dissociation constant (Kd) through the non-linear adjustment of the saturation curve to the experimental data. The double-log plot was used to determine the bonding constant and the number of bonding sites (n). It also allows the calculation of the bonding constant (Kb) and Kd from 1/Kb.
Equation (1)—Hill’s equation:(1) F0−F/F0=[L]/L+Kd
Equation (2)—Double-log:(2) logF0−F/F0=nlogKb−nlog1/L−(F0−F)[P0]/F
Equation (3)—Equation of Stern–Volmer:(3) F0/F=1+KSV[L]
The study of fluorescence quenching can be affected when the ligand has absorption bands that coincide with excitation and emission wavelengths of fluorescence. This interference is called the internal filter effect, which can be minimized using the procedure described by Equation (4). Fobs and Fcor are the fluorescence intensities at 333 nm measured and corrected, respectively; l represents the optical step where the absorption and emission of light occurs and C0 is the concentration of the ligand.
For the correction of the internal filter effect, were used the molar absorptivity coefficient values in the excitation (295 nm) and emission (333 nm) lengths, [λ/ε (L mol^−1 cm^−1)]; HL1^Ch (εex = 373 and εem = 117), HL3^FPh (εex = 1191 and εem = 57), HL5^NO2Ph (εex = 6162 and εem = 9124), Au1 (εex = 7045 and εem = 4008) and Ag3 (εex = 9431 and εem = 3281).

The next data set concerns Leishmania infantum. Kind of data set: Leishmanicidal activity against promastigotes (resazurin). The data set is classed as cell-based. The conditions noted are these: for IC50: promastigote form, 24 h treatment, resazurin, read-out: IC50 L. infantum; for SI L. infantum: selectivity index = CC50 (Vero) / IC50 (L. infantum promastigotes). As to the method:
(§2) The Leishmania infantum and Leishmania braziliensis strains were maintained in Schneider medium supplemented with 20% of SFB (Schneider 20%), cultivated in […] bottles and stored at 28 °C in a BOD oven. For the assays, parasites at the 5th day stationary growth phase were used.
(§3) The promastigotes metacyclic form of Leishmania infantum and Leishmania braziliensis were first filtered with an insulin syringe to break up rosettes and, then, were isolated from the culture in the stationary phase by centrifugation of 400× g for 4 min at a temperature of 4 °C [53]. The supernatant was subjected to a new centrifugation, heavier, of 2000× g for 30 min, also at 4 °C. The supernatant was discarded and the cell pallet formed from this centrifugation was resuspended in 10 mL of 10% Schneider medium. The process ensured the removal of cellular debris and dead parasites, as well as possible crystals from the culture medium, so that the quality of the experiment was guaranteed. Then, the promastigotes were diluted to 1:10 in paraformaldehyde (PFA) for counting in a Neubauer Chamber, with the concentrations adjusted for each experiment.
(§4) An amount of 1 × 10^7 parasites per well was used. The parasites were plated in 96-well plates. Then, the compounds were added in triplicate, starting at a concentration of 500 µM, with serial dilutions being performed up to a concentration of 3.9 µM [53]. The treatment was carried out for 24 h and, after adding 5 µL of resazurin, the fluorescence was read using a Enspire model spectrofluorometer (Perkin-Elmer, Waltham, MA, USA).

The test system of the next data set is Leishmania braziliensis. Described as above. Type of data set: cell-based. Conditions: for IC50: promastigote form, 24 h treatment, resazurin, read-out: IC50 L. braziliensis; for SI L. braziliensis: selectivity index = CC50 (Vero) / IC50 (L. braziliensis promastigotes). As to the method: as §2, §3, §4
For data set [3], the system named is Vero cells. Put plainly: Cytotoxicity assay on Vero cells (resazurin). Type of data set: cell-based, African green monkey. Conditions: 24 h treatment. As to the method: For the experiment, Vero cells (ATCC CRL-1587) were used in Roswell Parl Memorial Institute (RPMI) medium with 10% fetal bovine serum (FBS) (RPMI 10%) and 20 μg/mL of Gentamicin. They were cultivated in culture bottles of […] and kept in an oven at 37 °C with 5% carbon dioxide (CO2). When picked or used on the day of the experiment, the cells were detached from the wall of the bottles with saline and 1X trypsin/EDTA. To find out how many cells there were in the bottle, it was diluted in Turkey liquid and then we proceeded with the counting in the Neubauer Chamber to calculate the desired concentrations. The Vero cells were plated at […] cells per well, in 96-well plates, and kept in an incubator with 5% CO2 at 37 °C for 24 h. Then, the compounds were added in triplicate, starting at a concentration of 500 µM, with serial dilution being performed up to a concentration of 3.9 µM [54]. The treatment was carried out for 24 h, and, after adding 5 µL of resazurin, the fluorescence was read using a spectrofluorometer (EnSpire Perkin-Elmer, Waltham, MA, USA).

Data set [4] in a line: Solubility in buffer for the fluorescence experiments. Conditions: Tris-HCl buffer. The data set is classed as physicochemical. The procedure: as §1
After the synthesis and structural characterization of the compounds, studies of interaction of the compounds and the recombinant LbOYE were carried out by fluorescence measurements.

Data set [5] is described as follows: Solubility in organic solvents. Type of data set: physicochemical.
The test system of the next data set is L. braziliensis. More on the design: method as in PMID 32830445. Conditions: activity against L. braziliensis and cytotoxicity on macrophages; cited from earlier work.
The subject of data set [6] is Vero cells. On the set-up: method as in PMID 31152929. The conditions noted are these: value for the reference drug in Table 5; cited from earlier work.

Read-outs that look alike come from different tables or passages of the source.

T1 sequence (A4H6Z3 entry or part of it): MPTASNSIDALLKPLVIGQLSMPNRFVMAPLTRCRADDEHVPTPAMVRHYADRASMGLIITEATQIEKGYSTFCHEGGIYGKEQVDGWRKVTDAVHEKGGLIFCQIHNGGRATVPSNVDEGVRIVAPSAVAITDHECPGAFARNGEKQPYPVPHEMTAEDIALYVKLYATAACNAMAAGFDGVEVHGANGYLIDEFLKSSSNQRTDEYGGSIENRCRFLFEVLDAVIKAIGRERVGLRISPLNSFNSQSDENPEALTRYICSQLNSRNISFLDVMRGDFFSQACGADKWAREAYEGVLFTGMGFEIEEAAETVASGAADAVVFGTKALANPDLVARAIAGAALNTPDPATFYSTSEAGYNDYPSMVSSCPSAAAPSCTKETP

On to `Cc1ccc(S(=O)(=O)NNC(NC2CCCCC2)=[S][Au+][S]=C(NNS(=O)(=O)c2ccc(C)cc2)NC2CCCCC2)cc1.[Cl-]` [Au1, [Au(HL1^Ch)2]Cl], for which the “Inhibition of LbOYE reaction (initial velocity V0), in words” value on LbOYE [1] is “demonstrates capacity of inhibition, although less than the Ag3”. For the same molecule, the Kd at LbOYE [2] (Hill plot (n = 1), Equation (1), Tris-HCl pH 8.0, 2.5% DMSO, read-out: Kd * (Hill plot)) turned out to be 110 ± 30 µM. At LbOYE [2] (Stern–Volmer, Equation (3)), the “Ksv *** (Stern–Volmer constant)” value is on record as 2.4 ± 0.2 × 10^4. At LbOYE [2] (double log, Equation (2), Kd = 1/Kb, read-out: Kd ** (double log) (converted)), the dissociation constant Kd was 39 ± 3 µM. For the same molecule, on LbOYE [2] (double log, Equation (2)), the “n ** (number of bonding sites)” value came out at 1.8 ± 0.1. Further, in the data set on Leishmania infantum, the IC50 stood at 105 ± 3.14 µM and the “SI L. infantum” value is reported as 0.19. Further, in the data set on Leishmania braziliensis, the half-inhibitory concentration (IC50) came to 77.38 ± 0.018 µM and the “SI L. braziliensis” value is reported as 0.26. The same molecule registered a CC50 in the data set on Vero cells [3] of 19.9 µM. Further, the “Solubility in buffer at the concentrations for the fluorescence experiments, in words” value in [4] was “passed this stage”.

For `Cc1ccc(S(=O)(=O)NNC(Nc2ccc(Cl)cc2)=[S][Au+][S]=C(NNS(=O)(=O)c2ccc(C)cc2)Nc2ccc(Cl)cc2)cc1.[Cl-]` [Au4, [Au(HL4^ClPh)2]Cl], the “Solubility in solvents, in words” value in data set [5] is “low solubility”. Further, in the data set on Leishmania infantum, the IC50 was 38.18 ± 0.158 µM and the “SI L. infantum” value came to 0.84. In the data set on Leishmania braziliensis, the IC50 was determined as 277.6 ± 0.163 µM and the “SI L. braziliensis” value turned out to be 0.12. The cytotoxic concentration (CC50) in the data set on Vero cells [3] is 32 µM.

As to `C[C@@H]1[C@H](O)[C@@H](C)/C=C/C=C/C=C/C=C/C=C/C=C/C=C/[C@H](O[C@@H]2O[C@H](C)[C@@H](O)[C@H](N)[C@@H]2O)C[C@@H]2O[C@](O)(C[C@@H](O)C[C@@H](O)[C@H](O)CC[C@@H](O)C[C@@H](O)CC(=O)O[C@H]1C)C[C@H](O)[C@H]2C(=O)O` [amphotericin B], the SI with L. braziliensis is recorded as 6.8.

As for Glucantime [reference compound], the figures for the 50% inhibitory concentration (IC50) in the data set with Leishmania infantum and in the data set on Leishmania braziliensis were 113 to 130 µM and 176 to 192 µM, respectively. In the data set on Vero cells [6], the CC50 was 1630 µM.

Values taken from PMC11053681, “Gold(I) and Silver(I) Complexes Containing Hybrid Sulfonamide/Thiourea Ligands as Potential Leishmanicidal Agents” (Pharmaceutics, 2024).
